Measurements from paper PMC11295495 (Neuropharmacology, 2023).
Read-outs that look alike come from different tables or passages of the source.

Columns and labels:
a9a10 nAChR [1] = target: T1, a9a10 nAChR (Homo sapiens, UniProt Q9GZZ6+Q9UGM1); experiment: two-electrode voltage-clamp in Xenopus oocytes, inhibition of […] ACh responses; format: cell-based
a7 nAChR = a7 nAChR (Homo sapiens, UniProt P36544); experiment: cell-based
a9a10 nAChR [2] = target: T1, a9a10 nAChR; experiment: two-electrode voltage-clamp in Xenopus oocytes, inhibition of […] ACh responses; format: cell-based; remark: listed apart in the source
a9 nAChR = a9 nAChR (Homo sapiens, UniProt Q9UGM1); experiment: as above; format: cell-based
Sequence of a9 nAChR (Q9UGM1 23-479): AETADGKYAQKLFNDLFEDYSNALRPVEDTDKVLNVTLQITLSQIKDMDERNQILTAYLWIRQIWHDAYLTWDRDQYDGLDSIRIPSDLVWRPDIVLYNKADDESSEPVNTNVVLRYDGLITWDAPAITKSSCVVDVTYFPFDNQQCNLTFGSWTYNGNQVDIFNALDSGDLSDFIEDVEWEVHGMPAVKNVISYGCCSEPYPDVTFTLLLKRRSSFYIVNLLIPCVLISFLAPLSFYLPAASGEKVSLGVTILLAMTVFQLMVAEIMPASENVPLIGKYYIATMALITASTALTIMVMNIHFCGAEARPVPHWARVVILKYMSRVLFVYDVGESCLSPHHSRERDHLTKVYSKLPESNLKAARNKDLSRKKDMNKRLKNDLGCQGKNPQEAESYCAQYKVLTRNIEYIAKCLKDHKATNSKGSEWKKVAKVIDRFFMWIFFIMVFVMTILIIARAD

T1 sequence (Q9UGM1 23-479): as above
T1 sequence (Q9GZZ6 25-450): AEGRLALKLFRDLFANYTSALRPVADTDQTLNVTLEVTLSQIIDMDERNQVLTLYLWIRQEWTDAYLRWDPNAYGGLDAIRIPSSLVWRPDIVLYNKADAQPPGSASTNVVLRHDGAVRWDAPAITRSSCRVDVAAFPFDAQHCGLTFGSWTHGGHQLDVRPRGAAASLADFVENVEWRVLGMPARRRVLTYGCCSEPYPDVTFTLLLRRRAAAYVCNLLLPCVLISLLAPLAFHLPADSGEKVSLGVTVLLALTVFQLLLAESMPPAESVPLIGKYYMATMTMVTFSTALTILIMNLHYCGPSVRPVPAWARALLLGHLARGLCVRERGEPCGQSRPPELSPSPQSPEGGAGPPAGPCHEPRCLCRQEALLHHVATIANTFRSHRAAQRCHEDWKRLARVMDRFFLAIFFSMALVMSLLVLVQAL
Sequence of a7 nAChR (P36544 23-502): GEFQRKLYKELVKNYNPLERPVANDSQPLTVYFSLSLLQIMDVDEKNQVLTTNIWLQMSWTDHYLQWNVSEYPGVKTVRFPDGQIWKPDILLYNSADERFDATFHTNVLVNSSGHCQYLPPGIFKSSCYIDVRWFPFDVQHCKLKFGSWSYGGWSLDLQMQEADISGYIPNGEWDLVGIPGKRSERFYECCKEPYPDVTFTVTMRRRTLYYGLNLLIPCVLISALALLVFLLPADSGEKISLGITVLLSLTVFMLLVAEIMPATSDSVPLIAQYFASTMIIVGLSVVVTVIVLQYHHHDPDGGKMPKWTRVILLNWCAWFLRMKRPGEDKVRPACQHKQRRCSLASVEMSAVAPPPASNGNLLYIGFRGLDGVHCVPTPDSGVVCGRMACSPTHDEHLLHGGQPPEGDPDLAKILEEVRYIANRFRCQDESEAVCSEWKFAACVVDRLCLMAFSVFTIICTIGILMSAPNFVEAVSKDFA

Structure (SMILES) | IC50 (a9a10 nAChR [1]) | IC50 (a7 nAChR) | IC50 (a9a10 nAChR [2]) | IC50 (a9 nAChR)
CC[N+]1(CC)CCN(c2cccc(C#N)c2)CC1 [mCN-diEPP, 4-(3-cyanophenyl)-1,1-diethylpiperazin-1-ium] | 17.1 ± 1.54 µM |  |  | 
CCN1C[C@]2(COC(=O)c3ccccc3N3C(=O)C[C@H](C)C3=O)CC[C@H](OC)[C@@]34[C@@H]5C[C@H]6[C@H](OC)[C@@H]5[C@](O)(C[C@@H]6OC)[C@@](O)([C@@H](OC)[C@H]23)[C@@H]14 [methyllycaconitine] |  | 120 ± 50 nM | 240 ± 130 nM | 190 ± 20 nM
CN1CCC[C@H]1c1cccnc1 [nicotine] | 437 ± 73 µM |  |  | 
